Patent publication US10323022B2, “Pyrrolidinyl urea, pyrrolidinyl thiourea and pyrrolidinyl guanidine compounds as TrkA kinase inhibitors” (Array BioPharma Inc., priority 2011, dated 2019)
Where a name gives a salt, the structure may show the parent alone.

target: TrkA (Homo sapiens (Human), UniProt P04629); assay: TrkA Omnia Assay; assay type: biochemical; conditions: averaged IC50; 20 nM enzyme, 500 μM ATP, 10 μM peptide substrate
Method in brief: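 Recombinant TrkA (20 nM) preincubated 10 min at ambient temperature with compound, then Omnia Tyr Peptide #4 (10 μM) and ATP (500 μM) added in 25 mM MOPS pH 7.5, 5 mM MgCl2, 0.005% Triton X-100. Fluorescence (ex 360/em 485 nm) followed continuously for 70 min; IC50 from initial rates by 4- or 5-parameter logistic fit.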

TrkA, sequence (P04629 33-796): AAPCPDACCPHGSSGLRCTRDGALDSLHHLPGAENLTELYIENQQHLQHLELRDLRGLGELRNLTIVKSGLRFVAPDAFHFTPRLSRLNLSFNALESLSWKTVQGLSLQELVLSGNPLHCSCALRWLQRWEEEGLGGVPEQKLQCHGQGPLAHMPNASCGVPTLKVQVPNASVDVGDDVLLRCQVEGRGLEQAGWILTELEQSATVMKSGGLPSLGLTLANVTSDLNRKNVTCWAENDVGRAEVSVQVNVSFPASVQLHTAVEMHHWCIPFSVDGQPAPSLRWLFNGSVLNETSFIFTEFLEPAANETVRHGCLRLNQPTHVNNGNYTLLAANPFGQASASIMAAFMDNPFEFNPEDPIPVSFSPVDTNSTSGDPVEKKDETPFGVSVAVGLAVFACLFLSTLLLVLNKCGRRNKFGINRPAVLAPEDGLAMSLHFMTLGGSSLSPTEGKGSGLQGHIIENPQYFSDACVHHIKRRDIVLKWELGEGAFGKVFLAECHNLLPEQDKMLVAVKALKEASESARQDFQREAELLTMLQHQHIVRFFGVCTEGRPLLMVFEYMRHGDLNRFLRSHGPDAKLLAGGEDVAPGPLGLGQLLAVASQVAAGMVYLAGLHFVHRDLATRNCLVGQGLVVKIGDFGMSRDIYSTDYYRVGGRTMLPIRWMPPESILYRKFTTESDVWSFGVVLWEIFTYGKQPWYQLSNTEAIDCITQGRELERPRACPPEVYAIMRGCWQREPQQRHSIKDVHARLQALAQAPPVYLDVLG

Structure (SMILES)	IC50 [µM]
COCCN1C[C@@H](NC(=O)Nc2c(C(F)(F)F)c(OC)nn2-c2ccccc2)[C@H](c2ccc(F)c(F)c2)C1 [Example 605, 1-((3S,4R)-4-(3,4-difluorophenyl)-1-(2-methoxyethyl)pyrrolidin-3-yl)-3-(3-methoxy-1-phenyl-4-(trifluoromethyl)-1H-pyrazol-5-yl)urea]	< 0.1
COCCN1C[C@@H](NC(=O)Nc2c(C(F)(F)F)c(OC)nn2-c2ccccc2)[C@H](c2ccc(F)cc2)C1 [Example 607, 1-((3S,4R)-4-(4-fluorophenyl)-1-(2-methoxyethyl)pyrrolidin-3-yl)-3-(3-methoxy-1-phenyl-4-(trifluoromethyl)-1H-pyrazol-5-yl)urea]	< 0.1
COCCN1C[C@@H](NC(=O)Nc2c(C)c(=O)[nH]n2-c2ccccc2)[C@H](c2cc(F)cc(F)c2)C1 [Example 611, 1-((3S,4R)-4-(3,5-difluorophenyl)-1-(2-methoxyethyl)pyrrolidin-3-yl)-3-(4-methyl-5-oxo-2-phenyl-2,5-dihydro-1H-pyrazol-3-yl)urea]	< 0.1
COCCN1C[C@@H](NC(=O)Nc2c(C)c(=O)[nH]n2-c2ccccc2)[C@H](c2cc(F)c(F)c(F)c2)C1 [Example 612, 1-((3S,4R)-1-(2-methoxyethyl)-4-(3,4,5-trifluorophenyl)pyrrolidin-3-yl)-3-(4-methyl-5-oxo-2-phenyl-2,5-dihydro-1H-pyrazol-3-yl)urea]	< 0.1
COCCN1C[C@@H](NC(=O)Nc2c(C)c(=O)[nH]n2-c2ccccc2)[C@H](c2cccc(F)c2)C1 [Example 613, 1-((3S,4R)-4-(3-fluorophenyl)-1-(2-methoxyethyl)pyrrolidin-3-yl)-3-(4-methyl-5-oxo-2-phenyl-2,5-dihydro-1H-pyrazol-3-yl)urea]	< 0.1
COCCN1C[C@@H](NC(=O)Nc2c(C#N)c(OC)nn2-c2ccccc2)[C@H](c2ccc(F)c(F)c2)C1 [Example 615, 1-(4-cyano-3-methoxy-1-phenyl-1H-pyrazol-5-yl)-3-((3S,4R)-4-(3,4-difluorophenyl)-1-(2-methoxyethyl)pyrrolidin-3-yl)urea]	< 0.1
CCc1nn(-c2ccccc2)c(NC(=O)N[C@@H]2CN(CCOC)C[C@H]2c2ccc(F)c(F)c2)c1C#N [Example 616, 1-(4-cyano-3-ethyl-1-phenyl-1H-pyrazol-5-yl)-3-((3S,4R)-4-(3,4-difluorophenyl)-1-(2-methoxyethyl)pyrrolidin-3-yl)urea.]	< 0.1
COCCN1C[C@@H](NC(=O)Nc2c(C(N)=O)c(OC)nn2-c2ccccc2)[C@H](c2ccc(F)c(F)c2)C1 [Example 619, 5-(3-((3S,4R)-4-(3,4-difluorophenyl)-1-(2-methoxyethyl)pyrrolidin-3-yl)ureido)-3-methoxy-1-phenyl-1H-pyrazole-4-carboxamide]	< 0.1
CCc1nn(-c2ccccc2)c(NC(=O)N[C@@H]2CN(CCOC)C[C@H]2c2ccc(F)c(F)c2)c1C(N)=O [Example 621, 5-(3-((3S,4R)-4-(3,4-difluorophenyl)-1-(2-methoxyethyl)pyrrolidin-3-yl)ureido)-3-ethyl-1-phenyl-1H-pyrazole-4-carboxamide]	< 0.1
COCCN1C[C@@H](NC(=O)Nc2c(C(N)=O)cnn2-c2ccccc2)[C@H](c2ccc(F)c(F)c2)C1 [Example 627, 5-(3-((3S,4R)-4-(3,4-difluorophenyl)-1-(2-methoxyethyl)pyrrolidin-3-yl)ureido)-1-phenyl-1H-pyrazole-4-carboxamide]	< 0.1
COCCN1C[C@@H](NC(=N)Nc2c(Br)c(C)nn2-c2ccccc2)[C@H](c2ccc(F)c(F)c2)C1 [Example 629, 1-(4-bromo-3-methyl-1-phenyl-1H-pyrazol-5-yl)-3-((3S,4R)-4-(3,4-difluorophenyl)-1-(2-methoxyethyl)pyrrolidin-3-yl)guanidine dihydrochloride]	1 to 10
COCCN1C[C@@H](NC(=S)Nc2c(Br)c(C)nn2-c2ccccc2)[C@H](c2ccc(F)c(F)c2)C1 [Example 630, 1-(4-bromo-3-methyl-1-phenyl-1H-pyrazol-5-yl)-3-((3S,4R)-4-(3,4-difluorophenyl)-1-(2-methoxyethyl)pyrrolidin-3-yl)thiourea]	< 0.1
COCCN1C[C@@H](NC(=S)Nc2c(C)c(-c3ccc(=O)n(C)c3)nn2-c2ccccc2)[C@H](c2ccc(F)c(F)c2)C1 [Example 631, 1-((3S,4R)-4-(3,4-difluorophenyl)-1-(2-methoxyethyl)pyrrolidin-3-yl)-3-(4-methyl-3-(1-methyl-6-oxo-1,6-dihydropyridin-3-yl)-1-phenyl-1H-pyrazol-5-yl)thiourea]	< 0.1
COCCN1C[C@@H](NC(=S)Nc2c(C)c(-c3cnn(C)c3)nn2-c2ccccc2)[C@H](c2ccc(F)c(F)c2)C1 [Example 632, 1-((3S,4R)-4-(3,4-difluorophenyl)-1-(2-methoxyethyl)pyrrolidin-3-yl)-3-(1′,4-dimethyl-1-phenyl-1H,1′H-3,4′-bipyrazol-5-yl)thiourea]	< 0.1
COCCN1C[C@@H](NC(=S)Nc2c(C)c(-c3cnn(C)c3)nn2-c2ccccc2)[C@H](c2ccc(F)cc2)C1 [Example 633, 1-((3S,4R)-4-(4-fluorophenyl)-1-(2-methoxyethyl)pyrrolidin-3-yl)-3-(1′,4-dimethyl-1-phenyl-1H, 1′H-3,4′-bipyrazol-5-yl)thiourea]	< 0.1
COCCN1CC(c2ccccc2)[C@H](NC(=O)Nc2c(-c3ccccc3)nn3ccccc23)C1 (stereo partly drawn) [Example 634]	< 0.1
COCCN1C[C@@H](NC(=O)Nc2c(-c3ccccc3)nn3ccccc23)[C@H](c2ccc(F)c(F)c2)C1 [Example 635, 1-((3S,4R)-4-(3,4-difluorophenyl)-1-(2-methoxyethyl)pyrrolidin-3-yl)-3-(2-phenylpyrazolo[1,5-a]pyridin-3-yl)urea]	< 0.1
COCCN1C[C@@H](NC(=O)Nc2cnn3ccccc23)[C@H](c2ccc(F)c(F)c2)C1 [Example 637, 1-((3S,4R)-4-(3,4-difluorophenyl)-1-(2-methoxyethyl)pyrrolidin-3-yl)-3-(pyrazolo[1,5-a]pyridin-3-yl)urea]	< 0.1
COCCN1C[C@@H](NC(=O)Nc2c(-c3ccccc3)nn(C)c2C)[C@H](c2ccc(F)c(F)c2)C1 [Example 639, 1-((3S,4R)-4-(3,4-difluorophenyl)-1-(2-methoxyethyl)pyrrolidin-3-yl)-3-(1,5-dimethyl-3-phenyl-1H-pyrazol-4-yl)urea]	< 0.1
COCCN1C[C@@H](NC(=O)Nc2c(-c3ccccc3)nn(C)c2C)[C@H](c2cc(F)cc(F)c2)C1 [Example 640, 1-((3S,4R)-4-(3,5-difluorophenyl)-1-(2-methoxyethyl)pyrrolidin-3-yl)-3-(1,5-dimethyl-3-phenyl-1H-pyrazol-4-yl)urea]	< 0.1

Other lines, results leading:

IC50 [µM]	Structure (SMILES)
< 0.1	COCCN1C[C@@H](NC(=O)Nc2c(C(F)(F)F)c(OC)nn2-c2ccccc2)[C@H](c2cc(F)cc(F)c2)C1 [Example 606, 1-((3S,4R)-4-(3,5-difluorophenyl)-1-(2-methoxyethyl)pyrrolidin-3-yl)-3-(3-methoxy-1-phenyl-4-(trifluoromethyl)-1H-pyrazol-5-yl)urea]
< 0.1	COCCN1C[C@@H](NC(=O)Nc2c(C)c(-c3cn(C)cn3)nn2-c2ccccc2)[C@H](c2ccc(F)c(F)c2)C1 [Example 608, 1-((3S,4R)-4-(3,4-difluorophenyl)-1-(2-methoxyethyl)pyrrolidin-3-yl)-3-(4-methyl-3-(1-methyl-1H-imidazol-4-yl)-1-phenyl-1H-pyrazol-5-yl)urea]
< 0.1	COCCN1C[C@@H](NC(=O)Nc2c(C#N)c(C(F)(F)F)nn2-c2ccccc2)[C@H](c2ccc(F)c(F)c2)C1 [Example 617, 1-(4-cyano-1-phenyl-3-(trifluoromethyl)-1H-pyrazol-5-yl)-3-((3S,4R)-4-(3,4-difluorophenyl)-1-(2-methoxyethyl)pyrrolidin-3-yl)urea]
< 0.1	COCCN1C[C@@H](NC(=O)Nc2c(C#N)c(=O)[nH]n2-c2ccccc2)[C@H](c2ccc(F)c(F)c2)C1 [Example 618, 1-(4-cyano-5-oxo-2-phenyl-2,5-dihydro-1H-pyrazol-3-yl)-3-((3S,4R)-4-(3,4-difluorophenyl)-1-(2-methoxyethyl)pyrrolidin-3-yl)urea]
< 0.1	COCCN1C[C@@H](NC(=O)Nc2c(C(N)=O)c(C)nn2-c2ccccc2)[C@H](c2ccc(F)c(F)c2)C1 [Example 620, 5-(3-((3S,4R)-4-(3,4-difluoro-phenyl)-1-(2-methoxyethyl)pyrrolidin-3-yl)ureido)-3-methyl-1-phenyl-1H-pyrazole-4-carboxamide]
< 0.1	COCCN1C[C@@H](NC(=O)Nc2c(C(N)=O)c(C(F)(F)F)nn2-c2ccccc2)[C@H](c2ccc(F)c(F)c2)C1 [Example 622, 5-(3-((3S,4R)-4-(3,4-difluorophenyl)-1-(2-methoxyethyl)pyrrolidin-3-yl)ureido)-1-phenyl-3-(trifluoromethyl)-1H-pyrazole-4-carboxamide]
< 0.1	COCCN1C[C@@H](NC(=O)Nc2c(C(N)=O)c(C)nn2-c2ccccc2)[C@H](c2cc(F)cc(F)c2)C1 [Example 626, 5-(3-((3S,4R)-4-(3,5-difluorophenyl)-1-(2-methoxyethyl)pyrrolidin-3-yl)ureido)-3-methyl-1-phenyl-1H-pyrazole-4-carboxamide]
< 0.1	COCCN1C[C@@H](NC(=O)Nc2c(C(N)=O)c(C(F)F)nn2-c2ccccc2)[C@H](c2ccc(F)c(F)c2)C1 [Example 628, 3-(difluoromethyl)-5-(3-((3S,4R)-4-(3,4-difluorophenyl)-1-(2-methoxyethyl)pyrrolidin-3-yl)ureido)-1-phenyl-1H-pyrazole-4-carboxamide]
0.1 to 1	COCCN1CC(c2ccccc2)[C@H](NC(=O)Nc2cnn3ccccc23)C1 (stereo partly drawn) [Example 636]
< 0.1	COCCN1C[C@@H](NC(=O)Nc2c(-c3ccccc3)nn(-c3cnccn3)c2C)[C@H](c2ccc(F)c(F)c2)C1 [Example 638, 1-((3S,4R)-4-(3,4-difluorophenyl)-1-(2-methoxyethyl)pyrrolidin-3-yl)-3-(5-methyl-3-phenyl-1-(pyrazin-2-yl)-1H-pyrazol-4-yl)urea]
